In US20070128217A1 (priority 2003, published 2007):

Tests used:
[1] = tested on: antibodies in sera from SARS patients (sera 1a, 1b, 2, 6, 37, 62, London, SARS-yellow, SARS-green); assay type: binding, human; parameters: Binding of serum 6 to linear peptides of protein X1 of SARS-CoV Urbani / Binding of serum 37 to linear peptides of protein X1 of SARS-CoV Urbani / Binding of serum 6 to looped/cyclic peptide (PEPSCAN-ELISA) / Binding of serum 37 to looped/cyclic peptide (PEPSCAN-ELISA) / Binding of serum 37 to looped/cyclic peptides of protein X1 of SARS-CoV Urbani / Binding of serum 6 to linear peptides of protein X2 / Binding of serum 37 to linear peptides of protein X2 / Binding of serum 37 to looped/cyclic peptides of protein X2 of SARS-CoV Urbani / Binding of serum 6 to linear peptides of protein M of SARS-CoV Urbani / Binding of serum 37 to linear peptides of protein M of SARS-CoV Urbani / Binding of serum 6 to looped/cyclic peptides of protein M of SARS-CoV Urbani / Binding of serum 37 to looped/cyclic peptides of protein M of SARS-CoV Urbani / Binding of serum 6 to linear peptides of protein X3 of SARS-CoV Urbani / Binding of serum 37 to linear peptides of protein X3 of SARS-CoV Urbani / Binding of serum 37 to looped/cyclic peptides of protein X3 of SARS-CoV Urbani / Binding of serum 6 to linear peptides of protein X4 of SARS-CoV Urbani / Binding of serum 37 to linear peptides of protein X4 of SARS-CoV Urbani / Binding of serum 37 to looped/cyclic peptides of protein X4 of SARS-CoV Urbani / Binding of serum 6 to linear peptides of protein X5 of SARS-CoV Urbani / Binding of serum 37 to linear peptides of protein X5 of SARS-CoV Urbani / Binding of serum 37 to looped/cyclic peptides of protein X5 of SARS-CoV Urbani / Binding of serum 6 to linear peptides of protein N of SARS-CoV Urbani / Binding of serum 37 to linear peptides of protein N of SARS-CoV Urbani / Binding of serum 6 to linear peptide (PEPSCAN-ELISA) / Binding of serum 1a to looped/cyclic peptides of protein N of SARS-CoV Urbani / Binding of serum 1b to looped/cyclic peptides of protein N of SARS-CoV Urbani / Binding of serum 2 to looped/cyclic peptides of protein N of SARS-CoV Urbani / Binding of serum 6 to looped/cyclic peptides of protein N of SARS-CoV Urbani / Binding of serum 37 to looped/cyclic peptides of protein N of SARS-CoV Urbani / Binding of serum 62 to looped/cyclic peptides of protein N of SARS-CoV Urbani / Binding of serum London to looped/cyclic peptides of protein N of SARS-CoV Urbani / Binding of serum SARS-green to looped/cyclic peptides of protein N of SARS-CoV Urbani: unit not given here
[2] = tested on: recombinant human anti-SARS-CoV antibody 03-018; assay type: binding; parameters: Binding of antibody 03-018 to linear peptides of the N protein of SARS-CoV Urbani / Binding of antibody 03-018 to looped/cyclic peptides of the N protein of SARS-CoV Urbani: unit not given here
[3] = tested on: rabbit serum obtained by immunizing a rabbit with the SARS-CoV strain Frankfurt 1; assay type: binding; parameters: Binding of a rabbit serum to linear peptides / Binding of a rabbit serum to looped peptides / Rabbit serum linear peptides / Rabbit serum looped peptides / Binding of a rabbit serum to linear peptides of protein N of SARS-CoV Urbani (Rabbit serum linear peptides) / Binding of a rabbit serum to looped/cyclic peptides of protein N of SARS-CoV Urbani (Rabbit serum looped peptides): unit not given here
[4] = tested on: control sera (pooled serum of ten healthy LUMC hospital workers; commercial negative donor pooled serum from the Dutch bloodbank); assay type: binding, human

KKQPTVTLLPAADMD
Binding of serum 1a to linear peptides of protein N of SARS-CoV Urbani [1]: 0.3 | Binding of serum 1a to looped/cyclic peptides of protein N of SARS-CoV Urbani [1]: 0.3 | Binding of serum 1b to linear peptides of protein N of SARS-CoV Urbani [1]: 0.2 | Binding of serum 1b to looped/cyclic peptides of protein N of SARS-CoV Urbani [1]: 0.2 | Binding of serum 2 to linear peptides of protein N of SARS-CoV Urbani [1]: 0.2 | Binding of serum 2 to looped/cyclic peptides of protein N of SARS-CoV Urbani [1]: 0.2 | Binding of serum 6 to linear peptides of protein N of SARS-CoV Urbani [1]: 0.2 | Binding of serum 6 to looped/cyclic peptides of protein N of SARS-CoV Urbani [1]: 0.1 | Binding of serum 37 to linear peptides of protein N of SARS-CoV Urbani [1]: 1.0 | Binding of serum 37 to looped/cyclic peptides of protein N of SARS-CoV Urbani [1]: 0.4 | Binding of serum 62 to linear peptides of protein N of SARS-CoV Urbani [1]: 0.7 | Binding of serum 62 to looped/cyclic peptides of protein N of SARS-CoV Urbani [1]: 0.2 | Binding of serum London to linear peptides of protein N of SARS-CoV Urbani [1]: 0.6 | Binding of serum London to looped/cyclic peptides of protein N of SARS-CoV Urbani [1]: 0.2 | Binding of serum SARS-green to linear peptides of protein N of SARS-CoV Urbani [1]: 1.3 | Binding of serum SARS-green to looped/cyclic peptides of protein N of SARS-CoV Urbani [1]: 0.7 | Binding of serum SARS-yellow to linear peptides of protein N of SARS-CoV Urbani [1]: 0.5 | Binding of serum SARS-yellow to looped/cyclic peptides of protein N of SARS-CoV Urbani [1]: 0.2 | Binding of antibody 03-018 to linear peptides of the N protein of SARS-CoV Urbani [2]: 0.1 | Binding of antibody 03-018 to looped/cyclic peptides of the N protein of SARS-CoV Urbani [2]: 0.2 | Binding of a rabbit serum to linear peptides of protein N of SARS-CoV Urbani (Rabbit serum linear peptides) [3]: 0.1 | Binding of a rabbit serum to looped/cyclic peptides of protein N of SARS-CoV Urbani (Rabbit serum looped peptides) [3]: 0.2 | Control Serum Blood-Bank Looped peptides [4]: 0.3 | Control serum Blood-bank linear peptides [4]: 0.7 | Control serum LUMC linear peptides [4]: 0.6 | Control serum LUMC looped peptides [4]: 0.3

KKTDEAQPLPQRQKK
Binding of serum 1a to linear peptides of protein N of SARS-CoV Urbani [1]: 0.2 | Binding of serum 1a to looped/cyclic peptides of protein N of SARS-CoV Urbani [1]: 0.2 | Binding of serum 1b to linear peptides of protein N of SARS-CoV Urbani [1]: 0.1 | Binding of serum 1b to looped/cyclic peptides of protein N of SARS-CoV Urbani [1]: 0.1 | Binding of serum 2 to linear peptides of protein N of SARS-CoV Urbani [1]: 0.3 | Binding of serum 2 to looped/cyclic peptides of protein N of SARS-CoV Urbani [1]: 0.1 | Binding of serum 6 to linear peptides of protein N of SARS-CoV Urbani [1]: 0.4 | Binding of serum 6 to looped/cyclic peptides of protein N of SARS-CoV Urbani [1]: 0.0 | Binding of serum 37 to linear peptides of protein N of SARS-CoV Urbani [1]: 0.7 | Binding of serum 37 to looped/cyclic peptides of protein N of SARS-CoV Urbani [1]: 0.4 | Binding of serum 62 to linear peptides of protein N of SARS-CoV Urbani [1]: 0.6 | Binding of serum 62 to looped/cyclic peptides of protein N of SARS-CoV Urbani [1]: 0.2 | Binding of serum London to linear peptides of protein N of SARS-CoV Urbani [1]: 1.7 | Binding of serum London to looped/cyclic peptides of protein N of SARS-CoV Urbani [1]: 0.2 | Binding of serum SARS-green to linear peptides of protein N of SARS-CoV Urbani [1]: 0.2 | Binding of serum SARS-green to looped/cyclic peptides of protein N of SARS-CoV Urbani [1]: 0.0 | Binding of serum SARS-yellow to linear peptides of protein N of SARS-CoV Urbani [1]: 1.1 | Binding of serum SARS-yellow to looped/cyclic peptides of protein N of SARS-CoV Urbani [1]: 0.0 | Binding of antibody 03-018 to linear peptides of the N protein of SARS-CoV Urbani [2]: 0.1 | Binding of antibody 03-018 to looped/cyclic peptides of the N protein of SARS-CoV Urbani [2]: 0.2 | Binding of a rabbit serum to linear peptides of protein N of SARS-CoV Urbani (Rabbit serum linear peptides) [3]: 0.2 | Binding of a rabbit serum to looped/cyclic peptides of protein N of SARS-CoV Urbani (Rabbit serum looped peptides) [3]: 0.0 | Control Serum Blood-Bank Looped peptides [4]: 0.4 | Control serum Blood-bank linear peptides [4]: 0.7 | Control serum LUMC linear peptides [4]: 0.7 | Control serum LUMC looped peptides [4]: 0.3
